ChEMBL document CHEMBL2146392, “Minutissamides E-L, antiproliferative cyclic lipodecapeptides from the cultured freshwater cyanobacterium cf. Anabaena sp” (Bioorg Med Chem, 2012)
Activity calls are given as the source filed them. The rule behind the calls is not given here.

Legend:
[1] = test system: Mycolicibacterium smegmatis; assay: Antibacterial activity against Mycobacterium smegmatis at 10 ug/ml; assay type: functional, organism-based
[2] = test system: Escherichia coli; assay: Antibacterial activity against Escherichia coli at 10 ug/ml; assay type: functional, organism-based
[3] = test system: Streptococcus pneumoniae; assay: Antibacterial activity against Streptococcus pneumoniae at 10 ug/ml; assay type: functional, organism-based
[4] = test system: Acinetobacter baumannii; assay: Antibacterial activity against Acinetobacter baumannii at 10 ug/ml; assay type: functional, organism-based
[5] = test system: Staphylococcus aureus; assay: Antibacterial activity against Staphylococcus aureus at 10 ug/ml; assay type: functional, organism-based
[6] = test system: Enterococcus faecalis; assay: Antibacterial activity against Enterococcus faecalis at 10 ug/ml; assay type: functional, organism-based
[7] = test system: Pseudomonas aeruginosa; assay: Antibacterial activity against Pseudomonas aeruginosa at 10 ug/ml; assay type: functional, organism-based
[8] = test system: MDA-MB-435; assay: Antiproliferative activity against human MDA-MB-435 cells assessed as cell viability at 1 ng/ml after 96 hrs; assay type: functional; details: MDA-MB-435, 96 h, read-out: Activity

Compound	Activity [1]	Activity [2]	Activity [3]	Activity [4]	Activity [5]	Activity [6]	Activity [7]	viability at 0.001 µg/mL [8] [%]
C/C=C1/NC(=O)[C@H](C(C)C)NC(=O)[C@H](O)[C@@H]([C@@H](C)CCCCCCCCCCC(=O)CCC)NC(=O)[C@@H]2CCCN2C(=O)[C@H](CC(N)=O)N(C)C(=O)[C@H]([C@@H](C)OC)NC(=O)[C@@H](C)NC(=O)[C@H](CCC(N)=O)NC(=O)[C@H]([C@@H](C)O)NC(=O)[C@H]([C@@H](C)O)NC1=O	inactive	inactive	inactive	inactive	inactive	inactive	inactive	
C/C=C1/NC(=O)[C@H](C(C)C)NC(=O)[C@H](O)[C@@H]([C@@H](C)CCCCCCCCCCC(O)CCC)NC(=O)[C@@H]2CCCN2C(=O)[C@H](CC(N)=O)N(C)C(=O)[C@H]([C@@H](C)OC)NC(=O)[C@@H](C)NC(=O)[C@H](CCC(N)=O)NC(=O)[C@H]([C@@H](C)O)NC(=O)[C@H]([C@@H](C)O)NC1=O (stereo partly drawn)	inactive	inactive	inactive	inactive	inactive	inactive	inactive	
C/C=C1/NC(=O)[C@H](C(C)C)NC(=O)[C@H](O)[C@@H]([C@@H](C)CCCCCCCCCCC(=O)CCC)NC(=O)[C@@H]2CCCN2C(=O)[C@H](CC(N)=O)N(C)C(=O)[C@H]([C@@H](C)OC)NC(=O)[C@@H](C)NC(=O)[C@H](CCC(N)=O)NC(=O)[C@H](C(C)C)NC(=O)[C@H]([C@@H](C)O)NC1=O	inactive	inactive	inactive	inactive	inactive	inactive	inactive	
CC[C@]1(O)C[C@@H]2CN(CCc3c([nH]c4ccccc34)[C@@](C(=O)OC)(c3cc4c(cc3OC)N(C)[C@H]3[C@@](O)(C(=O)OC)[C@H](OC(C)=O)[C@]5(CC)C=CCN6CC[C@]43[C@@H]65)C2)C1 [VINBLASTINE]								49
C/C=C1/NC(=O)[C@H](C(C)C)NC(=O)[C@H](O)[C@@H]([C@@H](C)CCCCCCCC(Cl)CC)NC(=O)[C@@H]2CCCN2C(=O)[C@H](CC(N)=O)N(C)C(=O)[C@H]([C@@H](C)OC)NC(=O)[C@@H](C)NC(=O)[C@H](CCC(N)=O)NC(=O)[C@H]([C@@H](C)O)NC(=O)[C@H]([C@@H](C)O)NC1=O (stereo partly drawn)	inactive	inactive	inactive	inactive	inactive	inactive	inactive	
C/C=C1/NC(=O)[C@H](C(C)C)NC(=O)[C@H](O)[C@@H]([C@@H](C)CCCCCCCC(Cl)CC)NC(=O)[C@@H]2CCCN2C(=O)[C@H](CC(N)=O)N(C)C(=O)[C@H]([C@@H](C)OC)NC(=O)CNC(=O)[C@H](CCC(N)=O)NC(=O)[C@H]([C@@H](C)O)NC(=O)[C@H]([C@@H](C)O)NC1=O (stereo partly drawn)	inactive	inactive	inactive	inactive	inactive	inactive	inactive	
C/C=C1/NC(=O)[C@H](C(C)C)NC(=O)[C@H](O)[C@@H]([C@@H](C)CCCCCCCCCCC(=O)CCC)NC(=O)[C@@H]2CCCN2C(=O)[C@H](CC(N)=O)N(C)C(=O)[C@H]([C@@H](C)OC)NC(=O)CNC(=O)[C@H](CCC(N)=O)NC(=O)[C@H]([C@@H](C)O)NC(=O)[C@H]([C@@H](C)O)NC1=O	inactive	inactive	inactive	inactive	inactive	inactive	inactive	
